US8497380B2, “Substituted acetophenones useful as PDE4 inhibitors” (Leo Pharma A/S, priority 2006, dated 2013)

Tested on: Human peripheral blood mononuclear cells (PBMC)
Assay: TNFalfa-Release
Format: cell-based
Conditions: inhibition of TNF-a secretion, PBMC pre-incubated 30 minutes, stimulated 18 hours with lipopolysaccharide
Outline: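 Buffy-coat PBMC at 5×105 c/ml in RPMI1640 with 2% FCS were pre-incubated 30 min with compound, then stimulated 18 h with LPS 1 mg/ml. Supernatant TNF-a measured by enzyme immunoassay; pIC50 from inhibition curves relative to LPS-stimulated and unstimulated wells.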

Structure (SMILES) | IC50 [nM]
COc1ccc(C(=O)Cc2c(Cl)cncc2Cl)c(OC(F)F)c1OC(F)F [Compound 107, 1-(2,3-Bis-difluoromethoxy-4-methoxy-phenyl)-2-(3,5-dichloro-pyridin-4-yl)-ethanone] | < 1000
COc1ccc(C(=O)Cc2c(Cl)cncc2Cl)c(OCCN2C(=O)c3ccccc3C2=O)c1OC [Compound 185, 2-(2-{6-[2-(3,5-Dichloro-pyridin-4-yl)-acetyl]-2,3-dimethoxy-phenoxy}-ethyl)-isoindole-1,3-dione] | < 1000
COc1ccc(C(=O)Cc2c(Cl)cncc2Cl)c(OCCc2ccccc2F)c1OC [Compound 130, 2-(3,5-Dichloro-pyridin-4-yl)-1-(2-[2-(2-fluoro-phenyl)-ethoxy)-3,4-dimethoxy-phenyl]-ethanone] | < 1000
COc1ccc(C(=O)Cc2c(Cl)cncc2Cl)c(OCC(=O)NC(C)C)c1OC [Compound 209, 2-{6-[2-(3,5-Dichloro-pyridin-4-yl)-acetyl]-2,3-dimethoxy-phenoxy}-N-isopropyl-acetamide] | < 1000
COc1ccc(C(=O)Cc2c(Cl)cncc2Cl)c(OCC(=O)NCCc2cccnc2)c1OC [Compound 249, 2-{6-[2-(3,5-Dichloro-pyridin-4-yl)-acetyl]-2,3-dimethoxy-phenoxy}-14-(2-pyridin-3-yl-ethyl)-acetamide] | < 1000
C=CCCOc1c(OC)ccc(C(=O)Cc2c(Cl)cncc2Cl)c1OCC=C [Compound 190, 1-(2-Allyloxy-3-but-3-enyloxy-4-methoxy-phenyl)-2-(3,5-dichloro-pyridin-4-yl)-ethanone] | < 1000
COc1ccc(C(=O)Cc2c(Cl)cncc2Cl)c(OCc2ccccc2)c1OC [Compound 113, 1-(2-Benzyloxy-3,4-dimethoxy-phenyl)-2-(3,5-dichloro-pyridin-4-yl)-ethanone] | < 1000
COc1ccc(C(=O)Cc2c(Cl)cncc2Cl)c(OCC(=O)NC2CCCCCC2)c1OC [Compound 217, N-Cycloheptyl-2-{6-(2-(3,5-dichloro-pyridin-4-yl)-acetyl)-2,3-dimethoxy-phenoxy}-acetamide] | < 1000
COc1ccc(C(=O)Cc2c(Cl)cncc2Cl)c(OCCCc2ccccc2)c1OC [Compound 124, 2-(3,5-Dichloro-pyridin-4-yl)-1-[3,4-dimethoxy-2-(3-phenyl-propoxy)-phenyl]-ethanone] | < 1000
COc1ccc(C(=O)Cc2c(Cl)cncc2Cl)c(OCC(=O)NCc2cccc(Cl)c2)c1OC [Compound 246, N-(3-Chloro-benzyl)-2-{6-(2-(3,5-dichloro-pyridin-4-yl)-acetyl)-2,3-dimethoxy-phenoxy}-acetamide] | < 1000
COc1ccc(C(=O)Cc2c(Cl)cncc2Cl)c(O)c1OCC1CC1 [Compound 261, 1-(3-Cyclopropylmethoxy-2-hydroxy-4-methoxy-phenyl)-2-(3,5-dichloro-pyridin-4-yl)-ethanone] | < 1000
COc1ccc(C(=O)Cc2c(Cl)cncc2Cl)c(OCC(=O)NCCN(C)C)c1OC [Compound 224, 2-{6-[2-(3,5-Dichloro-pyridin-4-yl)-acetyl]-2,3-dimethoxy-phenoxy}-N-(2-dimethylamino-ethyl)-acetamide] | < 1000
C=CCOc1c(OC)ccc(C(=O)Cc2c(Cl)cncc2Cl)c1OCC=C [Compound 106, 1-(2,3-Bis-allyloxy-4-methoxy-phenyl)-2-(3,5-dichloro-pyridin-4-yl)-ethanone] | < 1000
C=CCOc1c(OC)ccc(C(=O)Cc2c(Cl)cncc2Cl)c1O [Compound 266, 1-(3-Allyloxy-2-hydroxy-4-methoxy-phenyl)-2-(3,5-dichloro-pyridin-4-yl)-ethanone] | < 1000
CCOC(=O)CCCOc1c(C(=O)Cc2c(Cl)cncc2Cl)ccc(OC)c1OC [Compound 142, 4-{6-[2-(3,5-Dichloro-pyridin-4-yl)-acetyl]-2,3-dimethoxy-phenoxy}-butyric acid ethyl ester] | < 1000
